Earlier results on twelve molecules are cited in patent US12030986B2, “Sustained release composition using biobased biodegradable hyperbranched polyesters” (CENTRAL MICHIGAN UNIVERSITY, priority 2014, dated 2024).

One may read the pKa as the pH at which an ionisable group is half protonated.

Turning to `N[C@@H](CC(=O)O)C(=O)O` [aspartic], the pKa is 2.0.

As for `N[C@@H](CCSSCC[C@H](N)C(=O)O)C(=O)O` [homocystine], the pKa is listed as 1.6.

Turning to `O=C(O)c1ccccn1` [picolinic acid], the pKa is 1.0.

As to `O=C(O)c1cccnc1` [nicotinic], the pKa is on record as 2.2.

With `O=C(O)[C@@H]1C[C@@H](O)CN1` (relative stereo) [trans-4-hydroxyproline], the pKa is recorded as 1.8.

For the molecule `CNCC(=O)O` [methlyglycine], the pKa is 2.2.

`NC(CS(=O)(=O)O)C(=O)O` (stereo not drawn) [cysteic]: the pKa was 1.3.

In the case of `C[C@@H](O)[C@H](N)C(=O)O` [threonine], the pKa is 2.1.

As to `N[C@@H](CCC(=O)O)C(=O)O` [glutamic], the pKa is recorded as 2.1.

On to `O=P(O)(O)O[C@H]1[C@H](OP(=O)(O)O)[C@@H](OP(=O)(O)O)[C@H](OP(=O)(O)O)[C@@H](OP(=O)(O)O)[C@H]1OP(=O)(O)O` [Phytic, phytic acid], for which the pKa is 1.8.

Take `CC(=O)C(=O)O` [pyruvic]: the pKa was 2.4.

For `O=C(O)/C=C(/CC(=O)O)C(=O)O` [cis-aconitic], the pKa was 2.0.
